Tests used:
Escherichia coli [1] = experiment: Antagonist activity against quorum sensing system in Pseudomonas aeruginosa PAO1 assessed as inhibition of 3OC6HSL- induced GFP expression at 50 uM by fluorescence analysis; conditions: filed as antagonist
[2] = biological target: T1, Transcriptional activator protein LuxR (Vibrio fischeri (strain ATCC 700601 / ES114), UniProt P35327); experiment: Antagonist activity against LuxR mediated quorum sensing system in Vibrio fischeri ES114 expressing luxI assessed as decrease in luminescence intensity incubated for 4 to 8 hrs by bioluminescence analysis; set-up: species or system Aliivibrio fischeri
T1 sequence (P35327 whole entry): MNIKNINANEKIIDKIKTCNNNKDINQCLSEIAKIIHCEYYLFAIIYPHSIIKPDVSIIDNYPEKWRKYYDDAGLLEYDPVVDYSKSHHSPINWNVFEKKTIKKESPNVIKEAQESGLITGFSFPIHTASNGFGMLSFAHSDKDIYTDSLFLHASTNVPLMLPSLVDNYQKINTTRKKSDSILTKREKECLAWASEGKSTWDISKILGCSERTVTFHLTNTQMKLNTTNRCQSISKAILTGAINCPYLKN

Pseudomonas aeruginosa [3] = experiment: Inhibition of Pseudomonas aeruginosa MH602 harboring PlasB::gfp(ASV) reporter assessed as decrease in GFP expression at 125 uM incubated for 22 hrs by fluorescence microplate reader analysis
Pseudomonas aeruginosa [4] = experiment: Inhibition of Pseudomonas aeruginosa MH602 harboring PlasB::gfp(ASV) reporter assessed as decrease in GFP expression at 250 uM incubated for 22 hrs by fluorescence microplate reader analysis
[5] = Inhibition of quorum sensing system in Pseudomonas aeruginosa MW1 assessed as inhibition of LasR expression at 33 uM incubated for 8 to 12 hrs in presence of 3-oxo-C12 HSL by fluorescence analysis; conditions: time 8-12 hrs
[6] = Inhibition of quorum sensing system in Pseudomonas aeruginosa MW1 assessed as inhibition of LasR expression incubated for 8 to 12 hrs in presence of 3-oxo-C12 HSL by fluorescence analysis
[7] = Inhibition of quorum sensing system in Pseudomonas aeruginosa PAO1 assessed as decrease in pqsR expression at 15 uM incubated for 12 hrs by real-time fluorescent quantitative PCR analysis
[8] = Inhibition of quorum sensing system in Pseudomonas aeruginosa PAO1 assessed as decrease in lasA expression at 15 uM incubated for 12 hrs by real-time fluorescent quantitative PCR analysis
[9] = Inhibition of quorum sensing system in Pseudomonas aeruginosa PAO1 assessed as inhibition of rhamnolipid production at 15 uM incubated for 12 hrs by spectrophotometric assay
[10] = Inhibition of quorum sensing system in Pseudomonas aeruginosa PAO1 assessed as decrease in lasI expression at 15 uM incubated for 12 hrs by real-time fluorescent quantitative PCR analysis
Pseudomonas aeruginosa [11] = experiment: Inhibition of biofilm formation in Pseudomonas aeruginosa PAO1 incubated for 12 hrs by crystal violet staining based analysis; format: functional
[12] = Inhibition of quorum sensing system in Pseudomonas aeruginosa PAO1 assessed as inhibition of pyocyanin production at 15 uM incubated for 12 hrs by spectrophotometric assay
[13] = Antagonist activity against quorum sensing system in Pseudomonas aeruginosa PAO1 transfected with lasB-lacZ reporter gene assessed as inhibition of beta-galactosidase activity incubated for 24 hrs by elastin-Congo red assay
[14] = Inhibition of quorum sensing system in Pseudomonas aeruginosa PAO1 assessed as inhibition of pyocyanin production at 32 uM incubated for 17 hrs by spectrophotometric analysis
Pseudomonas aeruginosa [15] = experiment: Inhibition of quorum sensing system in Pseudomonas aeruginosa MH602 expressing PlasB::gfp assessed as inhibition of GFP fluorescence expression at 250 uM incubated for 15 hrs by fluorescence microplate reader analysis
[16] = Inhibition of quorum sensing system in Pseudomonas aeruginosa PAO1 assessed as inhibition of pyocyanin production at 250 uM incubated for 17 hrs by spectrophotometric analysis
[17] = Inhibition of quorum sensing system in Pseudomonas aeruginosa PAO1 assessed as inhibition of elastase production at 15 uM incubated for 12 hrs by Congo red dye based spectrophotometric assay
[18] = Inhibition of quorum sensing system in Pseudomonas aeruginosa PA14 assessed as inhibition of pyocyanin production incubated for 17 hrs by spectrophotometric assay
[19] = biological target: T2, Transcriptional activator protein LasR (Pseudomonas aeruginosa (strain ATCC 15692 / PAO1 / 1C / PRS 101 / LMG12228)) (UniProt P25084); experiment: Antagonist activity against LasR-mediated quorum sensing system in Pseudomonas aeruginosa PAO1 assessed as inhibition of pyocyanin production at 200 uM incubated for 13 hrs by spectrophotometric assay; conditions: filed as antagonist
T2 sequence (whole entry): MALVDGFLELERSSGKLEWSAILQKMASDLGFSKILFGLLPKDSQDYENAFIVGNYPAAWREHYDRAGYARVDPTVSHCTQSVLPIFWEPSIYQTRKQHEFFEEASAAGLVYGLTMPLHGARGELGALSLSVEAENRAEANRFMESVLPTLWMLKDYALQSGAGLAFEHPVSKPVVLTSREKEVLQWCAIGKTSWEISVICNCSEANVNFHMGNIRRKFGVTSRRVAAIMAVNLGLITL

Pseudomonas aeruginosa [20] = experiment: Antagonist activity against quorum sensing system in Pseudomonas aeruginosa PAO-JP2 (plasI-LVAgfp) assessed as inhibition of 3-oxo-C12 HSL induced GFP expression at 100 uM incubated for 6 hrs in presence of 1 uM of 3-oxo-C12 HSL by fluorescence analysis
[21] = Cytotoxicity against human PBMC cells assessed as reduction in cell viability at 100 uM by MTT assay; format: toxicity, cell-based
Escherichia coli [22] = experiment: Inhibition of Escherichia coli MT102 harbouring pJBA132 expressing Gfp assessed as inhibition of GFP fluorescence expression at 62.5 uM incubated for 15 hrs by fluorescence microplate reader analysis
[23] = Agonist activity against RhlR in Escherichia coli expressing JLD271/pJN105R2/pSC11-rhlI using CPRG as substrate by spectrophotometric assay
[24] = biological target: T3, HTH-type quorum-sensing regulator RhlR (Pseudomonas aeruginosa (strain ATCC 15692 / PAO1 / 1C / PRS 101 / LMG12228), UniProt P54292); experiment: Agonist activity against RhlR in Pseudomonas aeruginosa PAO-JP2 expressing prhlI-LVAgfp using CPRG as substrate by spectrophotometric assay
T3 sequence (P54292 whole entry): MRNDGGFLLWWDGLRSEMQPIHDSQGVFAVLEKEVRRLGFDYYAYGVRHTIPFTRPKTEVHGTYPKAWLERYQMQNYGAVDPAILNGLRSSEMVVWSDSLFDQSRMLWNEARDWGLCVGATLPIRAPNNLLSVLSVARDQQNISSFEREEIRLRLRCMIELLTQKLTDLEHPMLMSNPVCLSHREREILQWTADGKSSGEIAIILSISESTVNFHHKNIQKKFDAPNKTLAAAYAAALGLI

[25] = Inhibition of quorum sensing system in Pseudomonas aeruginosa PAO1 assessed as decrease in rhlR expression at 15 uM incubated for 12 hrs by real-time fluorescent quantitative PCR analysis
[26] = biological target: T4, Transcriptional activator protein LasR (Pseudomonas aeruginosa (strain ATCC 15692 / PAO1 / 1C / PRS 101 / LMG12228), UniProt P25084); experiment: Antagonist activity against LasR-mediated quorum sensing system in Pseudomonas aeruginosa PAO1 by spectrophotometric assay
T4 sequence (P25084 whole entry): T2 sequence (whole entry)

Escherichia coli [27] = experiment: Inhibition of Escherichia coli MT102 harbouring pJBA132 expressing Gfp assessed as inhibition of GFP fluorescence expression at 250 uM incubated for 15 hrs by fluorescence microplate reader analysis
Pseudomonas aeruginosa [28] = experiment: Inhibition of quorum sensing system in Pseudomonas aeruginosa MH602 PlasB-gfp(ASV) assessed as inhibition of green fluorescent protein production at 62.5 uM for 20 hrs by fluorescence assay
Pseudomonas aeruginosa [29] = experiment: Inhibition of quorum sensing system in Pseudomonas aeruginosa MH602 PlasB-gfp(ASV) assessed as inhibition of green fluorescent protein production at 250 uM for 20 hrs by fluorescence assay
Pseudomonas aeruginosa [30] = experiment: Inhibition of quorum sensing system in Pseudomonas aeruginosa MH602 PlasB-gfp(ASV) assessed as inhibition of green fluorescent protein production at 125 uM for 20 hrs by fluorescence assay

## CCOC(=O)/C=C1\CC(NCc2ccc(C)cc2)C(=O)N1Cc1ccc(C)cc1 (stereo not drawn)
Escherichia coli [1]
  inhibition: 47.9%

## O=C(Cc1ccc(I)cc1)N[C@H]1CCOC1=O
[2]
  IC50: 600 nM

## O=C(Cc1ccc(-c2ccccc2)cc1)N[C@H]1CCOC1=O
[2]
  IC50: 600 nM

## C#CNC(=O)C(=O)c1cc(Br)ccc1NC(=O)CCl
Pseudomonas aeruginosa [3]
  inhibition: 65%
Pseudomonas aeruginosa [4]
  inhibition: 31.8%

## CCCCCCCCCCCCn1nnc(CC(=O)O)n1
[5]
  inhibition: 50%
[6]
  IC50: 30 µM

## O=C(CCSc1ccc(Cl)cc1)N[C@H]1CCOC1=O
[7]
  inhibition: 53.5%
[8]
  inhibition: 58.5%
[9]
  inhibition: 17.6%
[10]
  inhibition: 47.9%
Pseudomonas aeruginosa [11]
  inhibition (INH): 34.1%
[12]
  inhibition: 27.5%

## CCCCCCCC(=O)NC1CCCC1
[13]
  IC50: 250 µM

## O=C1C(Cl)=C(Cl)CN1c1ccccc1
[14]
  inhibition: 80%
Pseudomonas aeruginosa [15]
  inhibition: 81.7%
[16]
  inhibition: 90%

## CCCCCCCCCNC(=O)CC(=O)c1ccccc1
[5]
  inhibition: 75%
[6]
  IC50: 10 µM

## CCOC(=O)/C=C1\CC(NCc2ccccc2)C(=O)N1Cc1ccccc1 (stereo not drawn)
Escherichia coli [1]
  inhibition: 57.9%

## COc1ccccc1NC(=O)NC(=O)CSC(=S)N[C@H]1CCOC1=O
[17]
  inhibition: 18.4%
[7]
  inhibition: 57.5%
[9]
  inhibition: 16.7%
[10]
  inhibition: 39.2%
Pseudomonas aeruginosa [11]
  inhibition (INH): 40.3%
[12]
  inhibition: 30.3%

## O=C1C(Cl)=C(Cl)CN1c1cccc(O)c1
[14]
  inhibition: 80%
Pseudomonas aeruginosa [15]
  inhibition: 78%
[16]
  inhibition: 90%

## CCOC(=O)/C=C1\CC(NCc2ccco2)C(=O)N1Cc1ccco1 (stereo not drawn)
Escherichia coli [1]
  inhibition: 56.9%

## C#CNC(=O)C(=O)c1cc(C)ccc1NC(=O)CCl
Pseudomonas aeruginosa [3]
  inhibition: 64.6%
Pseudomonas aeruginosa [4]
  inhibition: 36.9%

## O=C(CCCOc1cccc(Cl)c1)NC1CCSC1=O (stereo not drawn)
[18]
  IC50: 9 µM

## CCCCCCCCCC(=O)CC(=O)Nc1cccc(OC)c1
[19]
  inhibition: 93%

## CCCCCCCCCCCC(=O)NC1CCCCC1=O (stereo not drawn)
Pseudomonas aeruginosa [20]
  inhibition: 30%

## O=C(CCCNc1ccc(Cl)cc1)NC1CCOC1=O (stereo not drawn)
[21]
  Activity: 57.4%

## Nc1cccc(N2CC(Cl)=C(Cl)C2=O)c1
[14]
  inhibition: 80%
Pseudomonas aeruginosa [15]
  inhibition: 80.4%
[16]
  inhibition: 90%

## C#CCNC(=O)C(=O)c1ccccc1NC(=O)CCl
Escherichia coli [22]
  inhibition: 56.5%

## CCCCCCCCCC(=O)CC(=O)Nc1ccc(OC)cc1
[19]
  inhibition: 73%

## CCCCC(=O)N[C@H]1CCSC1=O
[23]
  EC50: 4870 nM
[24]
  EC50: 3820 nM

## CC1=C(Br)/C(=C(\C)Br)OC1=O
[17]
  inhibition: 16.5%
[25]
  inhibition: 58.8%
[7]
  inhibition: 45%
[9]
  inhibition: 25.8%
[10]
  inhibition: 26.9%
[26]
  IC50: 17.4 µM
Pseudomonas aeruginosa [11]
  inhibition (INH): 28.6%
[12]
  inhibition: 31.6%

## O=C(Cc1ccccc1)N[C@H]1CCOC1=O
[2]
  IC50: 600 nM

## CCOC(=O)/C=C1\CC(NCc2cccs2)C(=O)N1Cc1cccs1 (stereo not drawn)
Escherichia coli [1]
  inhibition: 53.5%

## Cc1cccc(NC(=O)NC(=O)CSC(=S)N[C@H]2CCOC2=O)c1
[17]
  inhibition: 13.7%
[25]
  inhibition: 48.4%
[7]
  inhibition: 72.5%
[8]
  inhibition: 64.1%
[9]
  inhibition: 28.1%
[10]
  inhibition: 55.1%
Pseudomonas aeruginosa [11]
  inhibition (INH): 36.2%
[12]
  inhibition: 34.5%

## CCCCCCCCCCCC(=O)NC1CCC[C@@H]1O (stereo partly drawn)
Pseudomonas aeruginosa [20]; filed as antagonist
  inhibition: 70%

## O=C1C(Br)=C(Br)CN1c1ccccc1
[14]
  inhibition: 80%
Pseudomonas aeruginosa [15]
  inhibition: 80.7%
[16]
  inhibition: 90%

## O=C(CCCNc1ccc(F)cc1)NC1CCOC1=O (stereo not drawn)
[21]
  Activity: 49.2%

## O=C1Cn2nncc2CNC(=O)C(=O)c2ccccc2NC(=O)Cn2nncc2CNC(=O)C(=O)c2ccccc2N1
Escherichia coli [27]
  inhibition: 18.7%
Pseudomonas aeruginosa [4]
  inhibition: 74%

## O=C(CC1CCC1)N[C@H]1CCOC1=O
[23]
  EC50: 1780 nM
[24]
  EC50: 1410 nM

## O=C(Cn1cc(-c2ccc(Cl)cc2)nn1)Nc1nc2ccccc2[nH]1
Pseudomonas aeruginosa [28]
  inhibition: 52.9%
Pseudomonas aeruginosa [29]
  inhibition: 65%
Pseudomonas aeruginosa [30]
  inhibition: 60.5%

## CC(C)CCCC(=O)N[C@H]1CCOC1=O
[23]
  EC50: 1420 nM
[24]
  EC50: 1020 nM

## CCCCCCCCCC(=O)CC(=O)Nc1cccc(I)c1
[19]
  inhibition: 67%

## O=C(CCCOc1cccc(Br)c1)NC1CCSC1=O (stereo not drawn)
[18]
  IC50: 8 µM

## CCCCCCCc1cn(CC(=O)Nc2nc3ccccc3[nH]2)nn1
Pseudomonas aeruginosa [28]
  inhibition: 25%
Pseudomonas aeruginosa [29]
  inhibition: 42%
Pseudomonas aeruginosa [30]
  inhibition: 34%

## O=C1C(=O)N(C(=O)CCl)c2ccccc21
Pseudomonas aeruginosa [3]
  inhibition: 34.7%
Pseudomonas aeruginosa [4]
  inhibition: 60.1%

## O=C(Cc1ccc(Cl)cc1)N[C@H]1CCOC1=O
[2]
  IC50: 600 nM
